Source: patent publication US12336981B2, “Compounds and compositions for the inhibition of NAMPT” (Valo Health, Inc., priority 2010, dated 2025)
Like-named read-outs stand apart in the source and are kept apart here.

Columns and labels:
NAMPT = molecular target: T1, NAMPT (Homo sapiens, UniProt P43490); assay: Biochemical inhibition assay: NAMPT enzymatic reaction, NMN quantified by mass spectrometry; conditions: read-out: Biochem IC50
T1 construct: His tag; host or cells: E. coli
How it was run: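 Inhibition of E. coli-expressed His-tagged human NAMPT, measured as NMN formation by mass spectrometry after a 30 min room-temperature reaction containing 1 μM NAM, 100 μM PRPP and 2.5 mM ATP.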

A2780 cells = assay: In-vitro cell proliferation assay (SRB), A2780 cells; assay type: cell-based; conditions: Homo sapiens, A2780, 72 h, A2780 cells, 72 hours, read-out: A2780 IC50
How it was run: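 SRB read-out: 6% TCA fix 1 h at 4° C., stain, Tris solubilize, A570. Media-only background subtracted; % inhibition from two compound concentrations.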

T1 sequence (P43490 whole entry): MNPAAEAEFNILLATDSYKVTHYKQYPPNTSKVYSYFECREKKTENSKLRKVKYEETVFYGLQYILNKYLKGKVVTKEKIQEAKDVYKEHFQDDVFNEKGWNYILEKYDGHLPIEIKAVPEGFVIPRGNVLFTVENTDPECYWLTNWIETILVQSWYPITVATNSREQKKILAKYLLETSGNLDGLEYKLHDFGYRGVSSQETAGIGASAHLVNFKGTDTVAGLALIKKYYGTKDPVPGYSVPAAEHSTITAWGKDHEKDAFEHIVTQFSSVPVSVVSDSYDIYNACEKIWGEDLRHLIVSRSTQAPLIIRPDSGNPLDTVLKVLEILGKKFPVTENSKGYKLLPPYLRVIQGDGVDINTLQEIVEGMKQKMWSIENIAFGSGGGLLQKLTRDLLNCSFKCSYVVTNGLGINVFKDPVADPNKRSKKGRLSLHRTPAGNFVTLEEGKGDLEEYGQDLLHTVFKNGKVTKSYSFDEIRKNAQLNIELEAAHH

Row | Compound | IC50 (NAMPT; NAMPT enzymatic assay) | IC50 (A2780 cells; SRB) | IC50 (NAMPT; NAMPT enzymatic reaction) | IC50 (A2780 cells; SRB assay)
1 | CC(C)Oc1cc(F)ccc1S(=O)(=O)c1ccc(CNC(=O)c2cc3cnccc3[nH]2)cc1 | 25.4 nM | 3.3 nM |  | 
2 | COc1cc(Cl)cc(S(=O)(=O)c2ccc(CNC(=O)c3ccc4nccn4c3)cc2)c1 |  | 1.5 nM | 9.2 nM | 
3 | O=C(NCc1ccc(S(=O)(=O)c2ccc(Cl)cc2C(F)(F)F)cc1)c1cnc2[nH]ncc2c1 [N-[(4-{[4-chloro-2-(trifluoromethyl)benzene]sulfonyl}phenyl)methyl]-1H-pyrazolo[3,4-b]pyridine-5-carboxamide] | 147 nM | 78.3 nM |  | 
4 | O=C(NCc1ccc(S(=O)(=O)c2ccc(Cl)cc2C(F)(F)F)cc1)c1cnc2nccn2c1 | 7.9 nM | 68.4 nM |  | 
5 | COc1ccc(Cl)c(S(=O)(=O)c2ccc(CNC(=O)c3cnc4nccn4c3)cc2)c1 |  | 51.5 nM | 6.1 nM | 
6 | Cc1ccc(S(=O)(=O)c2ccc(CNC(=O)c3cnc4[nH]ncc4c3)cc2)c(C)c1 [N-({4-[(2,4-dimethylbenzene)sulfonyl]phenyl}methyl)-1H-pyrazolo[3,4-b]pyridine-5-carboxamide] |  | 71.6 nM | 61.2 nM | 
7 | Cc1ccncc1S(=O)(=O)c1ccc(CNC(=O)c2cnc3nccn3c2)cc1 [N-{[4-(4-methylpyridine-3-sulfonyl)phenyl]methyl}imidazo[1,2-a]pyrimidine-6-carboxamide] | 19.1 nM | 100 to 1000 nM |  | 
8 | COc1c(Cl)ccc(S(=O)(=O)c2ccc(CNC(=O)c3ccc4nccn4c3)cc2)c1Cl |  | 13 nM | 31.1 nM | 
9 | Cn1ncc2c(S(=O)(=O)c3ccc(CNC(=O)c4cc5ccncc5s4)cc3)cccc21 [N-{[4-(1-methyl-1H-indazole-4-sulfonyl)phenyl]methyl}thieno[2,3-c]pyridine-2-carboxamide] | 1.1 nM | 0.8 nM |  | 
10 | CC(C)Oc1cccc(S(=O)(=O)c2ccc(CNC(=O)c3cc4ccncc4s3)cc2)c1F | 4.7 nM | 6.6 nM |  | 
11 | O=C(NCc1ccc(S(=O)(=O)c2cc(F)cc(N3CCOCC3)c2)cc1)c1ccc2nccn2c1 | 3 nM | 0.6 nM |  | 
12 | COc1ccc(C(C)(C)C)cc1S(=O)(=O)c1ccc(CNC(=O)c2cc3ccncc3o2)cc1 | 21.8 nM | 10.1 nM |  | 
13 | COc1ccc(C)cc1S(=O)(=O)c1ccc(CNC(=O)c2ccc3nccn3c2)cc1 [N-({4-[(2-methoxy-5-methylbenzene)sulfonyl]phenyl}methyl)imidazo[1,2-a]pyridine-6-carboxamide] |  | 11.7 nM | 43.1 nM | 
14 | Cn1ncc2c(S(=O)(=O)c3ccc(CNC(=O)c4cc5cnccc5[nH]4)cc3)cccc21 [N-{[4-(1-methyl-1H-indazole-4-sulfonyl)phenyl]methyl}-1H-pyrrolo[3,2-c]pyridine-2-carboxamide] | 3.1 nM | 1.5 nM |  | 
15 | CCCOc1ccc(S(=O)(=O)c2ccc(CNC(=O)c3cnc4[nH]ncc4c3)cc2)cc1Cl [N-({4-[(3-chloro-4-propoxybenzene)sulfonyl]phenyl}methyl)-1H-pyrazolo[3,4-b]pyridine-5-carboxamide] |  | 9.58 nM | 7.9 nM | 
16 | O=C(NCc1ccc(S(=O)(=O)c2cccc(-c3ccc(F)c(F)c3)n2)cc1)c1ccc2nccn2c1 [N-({4-[6-(3,4-difluorophenyl)pyridine-2-sulfonyl]phenyl}methyl)imidazo[1,2-a]pyridine-6-carboxamide] | 4.3 nM | 5.7 nM |  | 
17 | CN(C)S(=O)(=O)c1cccc(S(=O)(=O)c2ccc(CNC(=O)c3cnc4nccn4c3)cc2)c1 | 2 nM | 11.2 nM |  | 
18 | CCN(CC)C(=O)c1cc(Cl)cc(S(=O)(=O)c2ccc(CNC(=O)c3cc4ccncc4o3)cc2)c1 [N-[(4-{[3-chloro-5-(diethylcarbamoyl)benzene]sulfonyl}phenyl)methyl]furo[2,3-c]pyridine-2-carboxamide] | 8.4 nM | 1.7 nM |  | 
19 | CC(C)COc1ccc(S(=O)(=O)c2ccc(CNC(=O)c3cnc4[nH]ncc4c3)cc2)cc1 [N-[(4-{[4-(2-methylpropoxy)benzene]sulfonyl}phenyl)methyl]-1H-pyrazolo[3,4-b]pyridine-5-carboxamide] | 26.3 nM | 16.2 nM |  | 
20 | O=C(NCc1ccc(S(=O)(=O)c2ccc(-n3cccn3)c(F)c2)cc1)c1cc2ccncc2o1 | 17.3 nM | 5 nM |  | 
21 | O=C(NCc1ccc(S(=O)(=O)c2ccccc2CN2CCOCC2)cc1)c1cc2cnccc2[nH]1 [N-[(4-{[2-(morpholin-4-ylmethyl)benzene]sulfonyl}phenyl)methyl]-1H-pyrrolo[3,2-c]pyridine-2-carboxamide] |  |  | 34 nM | 6 nM
22 | O=C(NCc1ccc(S(=O)(=O)c2ccc(-n3cccn3)c(F)c2)cc1)c1cc2cnccc2[nH]1 [N-[(4-{[3-fluoro-4-(1H-pyrazol-1-yl)benzene]sulfonyl}phenyl)methyl]-1H-pyrrolo[3,2-c]pyridine-2-carboxamide] |  |  | 11 nM | 4 nM
23 | Cc1ccc(F)cc1S(=O)(=O)c1ccc(CNC(=O)c2cc3ccncc3o2)cc1 |  | 24.9 nM | 14.3 nM | 

Row | Compound | IC50 (NAMPT; NAMPT enzymatic assay) | IC50 (A2780 cells; SRB) | IC50 (NAMPT; NAMPT enzymatic reaction) | IC50 (A2780 cells; SRB assay)
24 | Cc1cc(C)cc(S(=O)(=O)c2ccc(CNC(=O)c3cnc4[nH]ncc4c3)cc2)c1 |  | 6.1 nM | 10.4 nM | 
25 | O=C(NCc1ccc(S(=O)(=O)c2ccc(OC(F)(F)F)c(F)c2)cc1)c1cc2cnccc2[nH]1 [N-[(4-{[3-fluoro-4-(trifluoromethoxy)benzene]sulfonyl}phenyl)methyl]-1H-pyrrolo[3,2-c]pyridine-2-carboxamide] | 26.2 nM | 20.5 nM |  | 
26 | COc1ccc(S(=O)(=O)c2ccc(CNC(=O)c3cc4ccncc4o3)cc2)cc1OC |  | 3.8 nM | 6.2 nM | 
27 | Cn1cc2cc(S(=O)(=O)c3ccc(CNC(=O)c4ccc5nccn5c4)cc3)ccc2n1 [N-{[4-(2-methyl-2H-indazole-5-sulfonyl)phenyl]methyl}imidazo[1,2-a]pyridine-6-carboxamide] | 13.3 nM | 5.8 nM |  | 
28 | O=C(NCc1ccc(S(=O)(=O)c2ccc3ncccc3c2)cc1)c1cnc2nccn2c1 [N-{[4-(quinoline-6-sulfonyl)phenyl]methyl}imidazo[1,2-a]pyrimidine-6-carboxamide] | 3.3 nM | 5.6 nM |  | 
29 | CCCCOc1ccc(S(=O)(=O)c2ccc(CNC(=O)c3cc4cnccc4[nH]3)cc2)cc1F |  | 13.4 nM | 53.6 nM | 
30 | O=C(NCc1ccc(S(=O)(=O)c2cccc(-c3ccc(F)c(F)c3)n2)cc1)c1cc2ccncc2o1 [N-({4-[6-(3,4-difluorophenyl)pyridine-2-sulfonyl]phenyl}methyl)furo[2,3-c]pyridine-2-carboxamide] | 5 nM | 42.7 nM |  | 
31 | Cc1cc(C)c(S(=O)(=O)c2ccc(CNC(=O)c3cnc4[nH]ncc4c3)cc2)c(C)c1 [N-({4-[(2,4,6-trimethylbenzene)sulfonyl]phenyl}methyl)-1H-pyrazolo[3,4-b]pyridine-5-carboxamide] |  | 100 to 1000 nM | 136 nM | 
32 | CCCn1cc(S(=O)(=O)c2ccc(CNC(=O)c3cc4cnccc4[nH]3)cc2)cn1 [N-{[4-(1-propyl-1H-pyrazole-4-sulfonyl)phenyl]methyl}-1H-pyrrolo[3,2-c]pyridine-2-carboxamide] | 14.9 nM | 5.9 nM |  | 
33 | O=C(NCc1ccc(S(=O)(=O)c2cc(F)cc(C(F)(F)F)c2)cc1)c1cnc2nccn2c1 | 5.9 nM | 1.1 nM |  | 
34 | CCCOc1ccc(S(=O)(=O)c2ccc(CNC(=O)c3cnc4nccn4c3)cc2)c(C)c1 |  | 51.8 nM | 10 nM | 
35 | O=C(NCc1ccc(S(=O)(=O)c2cccc3c2oc2ccccc23)cc1)c1cnc2nccn2c1 | 1.7 nM | 2.9 nM |  | 
36 | O=C(NCc1ccc(S(=O)(=O)Nc2ccccc2CCO)cc1)c1cc2cnccc2[nH]1 [N-[(4-{[2-(2-hydroxyethyl)phenyl]sulfamoyl}phenyl)methyl]-1H-pyrrolo[3,2-c]pyridine-2-carboxamide] | 18.8 nM | 19.9 nM |  | 
37 | Cc1cc(C)n(-c2cccc(S(=O)(=O)c3ccc(CNC(=O)c4ccc5nccn5c4)cc3)c2)n1 | 7.2 nM | 0.8 nM |  | 
38 | O=C(NCc1ccc(S(=O)(=O)c2cncc(N3CCCC3)c2)cc1)c1ccc2nccn2c1 [N-({4-[5-(pyrrolidin-1-yl)pyridine-3-sulfonyl]phenyl}methyl)imidazo[1,2-a]pyridine-6-carboxamide] | 4 nM | 0.5 nM |  | 
39 | COc1cc(S(=O)(=O)c2ccc(CNC(=O)c3cnc4nccn4c3)cc2)ccc1Cl |  | 5.2 nM | 2.7 nM | 
40 | Cc1ccc(Cl)c(S(=O)(=O)c2ccc(CNC(=O)c3cc4cnccc4[nH]3)cc2)c1F | 6.5 nM | 7.1 nM |  | 
41 | CC(C)(C)c1cccc(S(=O)(=O)c2ccc(CNC(=O)c3cc4ccncc4s3)cc2)c1 |  | 9.1 nM | 10.5 nM | 
42 | O=C(NCc1ccc(S(=O)(=O)c2ccc(C(F)(F)F)cn2)cc1)c1cnc2[nH]ncc2c1 [N-({4-[5-(trifluoromethyl)pyridine-2-sulfonyl]phenyl}methyl)-1H-pyrazolo[3,4-b]pyridine-5-carboxamide] | 100 to 1000 nM | 100 to 1000 nM |  | 
43 | COc1ccccc1S(=O)(=O)c1ccc(CNC(=O)c2ccc3nccn3c2)cc1 [N-({4-[(2-methoxybenzene)sulfonyl]phenyl}methyl)imidazo[1,2-a]pyridine-6-carboxamide] |  | 15.3 nM | 26.5 nM | 
44 | O=C(NCc1ccc(S(=O)(=O)c2cccc(F)c2Cl)cc1)c1cc2ccncc2o1 |  | 61.1 nM | 17 nM | 
45 | COc1ccc(OC)c(S(=O)(=O)c2ccc(CNC(=O)c3ccc4nccn4c3)cc2)c1 [N-({4-[(2,5-dimethoxybenzene)sulfonyl]phenyl}methyl)imidazo[1,2-a]pyridine-6-carboxamide] |  | 12.8 nM | 20.2 nM | 
